# Assay results as given in patent publication US7507716B2, “Method for treating pain with prolactin antagonists” (Board of Regents, The University of Texas System, priority 2005, dated 2009).
# B1: PRL: Ovine PRL [oPRL-21, BIO] provided by NHPP; prolactin polypeptide hormone (protein, UniProt P01240 31-229, looked up)
# Prolactin: TPVCPNGPGNCQVSLRDLFDRAVMVSHYIHNLSSEMFNEFDKRYAQGKGFITMALNSCHTSSLPTPEDKEQAQQTHHEVLMSLILGLLRSWNDPLYHLVTEVRGMKGVPDAILSRAIEIEEENKRLLEGMEMIFGQVIPGAKETEPYPVWSGLPSLQTKDEDARHSAFYNLLHCLRRDSSKIDTYLKLLNCRIIYNNNC
# Tests used:
# [1] = system: capsaicin-evoked nocifensive behavior; assay: Eye-wipe test (corneal capsaicin); assay type: in vivo, rat
# Method: To whether this effect has relevance to capsaicin-induced nociception in the whole animal, corneal wipe tests were performed. In this test, corneal application of capsaicin induces a brief nocifensive behavior in the trigeminal region of awake animals (Price et al., 2004; Neubert et al., 2005; Tender et al., 2005). The cornea is a specialized tissue innervated by trigeminal sensory neurons including TRPV1 positive C-fibers (Guo et al., 1999). Turning to FIG. 8A, the results of immunohistochemical analysis of corneal cryosections from proestrous females reveal the presence of fibers that stain positive for both PRL-R (green) and TRPV1 (red) (FIG. 8A).
# In this test, the effect of PRL pretreatment on capsaicin-induced eye wiping in proestrous rats was examined. PRL (1 μg/ul in saline) or vehicle (40 μl) was applied in the cornea immediately followed by application of 0.01% capsaicin or vehicle (40 μl) and the total time spent grooming the injected eye per 5 min bins was measured by observers blinded to treatment allocation. Data are shown as mean±SEM (n=6/group *=p<0.05 and ***=p<0.001; two-way ANOVA). […] Data are shown as mean±SEM (n=6/group; two-way ANOVA). […] Data are shown as mean±SEM (n=6/group, **=p<0.01; two-way ANOVA). The effect of PRL on capsaicin-mediated nocifensive response was assessed next in male rats, in order to determine whether the influence of PRL-signaling on nociception is conserved between gender. Corneal wipe tests were performed on age-matched male rats essentially as described above. Data in FIG. 8E are shown as mean±SEM (n=6/group, **=p<0.01; two-way ANOVA). Unexpectedly, the capsaicin-mediated nocifensive response profile of male rats is strikingly similar to that of proestrus rats (compare FIG. 8E with FIG. 8B) and estradiol-treated OVX rats (compare FIG. 8E with FIG. 8D), and divergent from that found in control OVX rats treated with vehicle.
# Eye-Wipe Test OVX female rats, treated with either vehicle or E2 (5μg/day/10 days), or intact female rats in the proestrous reproductive stage were brought to a quiet, temperature controlled (22-25° C.) behavioral laboratory in individual cages where they were allowed to acclimate for at least 2 h. PRL (1 μg/μl) or vehicle was placed directly onto the right eye in a volume of 40 ul followed by application of 0.01% (40 μl) capsaicin solution as described previously (Price et al. 2004). The resulting behavioral response was measured as time spent grooming or wiping the test eye. The observers were blinded to the treatments and the data were collected in 3 bins of 5 min.
# [2] = system: gene expression in trigeminal ganglia; assay: Affymetrix microarray of trigeminal ganglia RNA after estradiol administration; assay type: in vivo, rat; conditions: OVX rats, estradiol 80 μg/kg/10 days versus vehicle
# Method: At the end of the 10th day, animals were used for behavioral experiments or sacrificed by decapitation and the TG of each individual animal were harvested. Harvested tissue was used for RNA isolation, total protein isolation, or for preparing primary cultures of TG neurons.
# The ground tissue was used to isolate total RNA by the guanidinium thiocyanate method as described previously (Chomczynski and Sacchi, 1987). The isolated RNA was then treated with a DNA-free reagent (DNAse I; Ambion, Austin, Tex.) and submitted to the Microarray Core Facility at the University of Texas Health Science Center at San Antonio. Additional RNA sample aliquots were used as template for the quantitative real time RT-PCR experiments.
# Microarray analysis: Target preparation, hybridization, staining, scanning and analysis of image: RNA samples derived from TG of OVX rats treated with a single dose (80 μg/kg per day) of E2 or vehicle (n=5 for each group) were prepared for hybridization to Affymetrix (Santa Clara, Calif.) RG-U34A arrays according to the manufacturer's instructions. Total RNA was used as a template for double-stranded cDNA synthesis (Superscript Double-Stranded cDNA Synthesis kit, Invitrogen, Carlsbad, Calif.), which was used as a template for biotin-labeled cRNA synthesis (Enzo BioArray High Yield RNA Transcription Labeling Kit, Affymetrix). Purified (RNeasy kit, Qiagen, Valencia, Calif.) labeled-cRNA was hybridized to the rat genomic RG-U34A GeneChips for 16 h at 45° C. Following hybridization, the probe arrays were washed and stained using the GeneChip Fluidics station protocol EukGE-ES2. The intensity of bound dye was measured with an argon laser confocal scanner (GeneArray Scanner, Agilent, Palo Alto, Calif.). The probe arrays were scanned twice and the stored images were aligned and analyzed using the GeneClip software Micro array Analysis Suite (MAS) 5.0 (Affymetrix, Santa Clara, Calif.). Data were imported into the GeneSpring 5.1 software (Silicon Genetics, Redwood City, Calif.) and a list of genes of relative expression of ≧1.5 and ≧0.5 fold was obtained. The data were imported into the R software package and the probe level data were converted to expression measures using the Affy package (Bolstad et al., 2003) from Bioconductor. Expression values for each mRNA were obtained by the Robust Multi-array Analysis (RMA) method as described elsewhere (Boistad et al., 2003).
molecule,measurement,setting,value
"C[C@]12CC[C@@H]3c4ccc(O)cc4CC[C@H]3[C@@H]1CC[C@@H]2O [estradiol, 17-β-estradiol]",PRL sensitization of capsaicin nocifensive behavior,[1]; OVX female rats treated with estradiol,restores PRL sensitization of capsaicin nocifensive behavior
same,"Trk A 3′ mRNA sequence expression, GS (change cut-off)",[2]; probe set AA958274_at,≧1.5
same,"Trk A 3′ mRNA sequence expression, SAM",[2]; probe set AA958274_at,1.5
same,"Histidine ammonia lyase expression, GS (change cut-off)",[2]; probe set AB002393_at,≧1.5
same,"Histidine ammonia lyase expression, SAM",[2]; probe set AB002393_at,1.5
same,"Ania-10 early gene mRNA, 3′ UTR expression, GS (change cut-off)",[2]; probe set AF050662UTR#1_at,≧1.5
same,"Ania-10 early gene mRNA, 3′ UTR expression, SAM",[2]; probe set AF050662UTR#1_at,1.6
same,"Ania-12 early gene mRNA, 3′ UTR expression, GS (change cut-off)",[2]; probe set AF050664UTR#1_at,≧1.5
same,"Ania-12 early gene mRNA, 3′ UTR expression, SAM",[2]; probe set AF050664UTR#1_at,1.5
same,"Insulin receptor substrate 2 (IRS-2) mRNA expression, GS (change cut-off)",[2]; probe set AF087674_at,≧1.5
same,"Insulin receptor substrate 2 (IRS-2) mRNA expression, SAM",[2]; probe set AF087674_at,1.4
same,"Interleukin 1 alpha expression, GS (change cut-off)",[2]; probe set D00403_g_at,≧1.5
same,"Interleukin 1 alpha expression, SAM","[2]; probe set D00403_g_at, false positive by RT-PCR",1.3
same,"Aldosterone synthase, exon 9 expression, GS (change cut-off)",[2]; probe set D14097cds_s_at,≧1.5
same,"Aldosterone synthase, exon 9 expression, SAM",[2]; probe set D14097cds_s_at,1.5
same,"Cytochrome P450, 3a18 expression, GS (change cut-off)",[2]; probe set D38381_s_at,≧1.5
same,"Cytochrome P450, 3a18 expression, SAM",[2]; probe set D38381_s_at,1.3
same,"Prepro bone inducing protein expression, GS (change cut-off)",[2]; probe set D49494cds_s_at,≧1.5
same,"Prepro bone inducing protein expression, SAM",[2]; probe set D49494cds_s_at,1.3
same,"Prolactin expression, GS (change cut-off)",[2]; probe set E03166cds_s_at,≧1.5
same,"Prolactin expression, SAM",[2]; probe set E03166cds_s_at,6.9
same,"Nuclear receptor subfamily 1, Group D, member 1 expression, GS (change cut-off)",[2]; probe set M25801_g_at,≧1.5
same,"Nuclear receptor subfamily 1, Group D, member 1 expression, SAM",[2]; probe set M25801_g_at,1.5
same,"Protein phosphatase 3, catalytic subunit, beta isoform expression, GS (change cut-off)",[2]; probe set M31809_at,≦1.5
same,"Protein phosphatase 3, catalytic subunit, beta isoform expression, SAM",[2]; probe set M31809_at,0.6
same,"Electron transf. flavoprotein (Etfa), mRNA expression, GS (change cut-off)",[2]; probe set Rc_AA894174_at,≦1.5
same,"Electron transf. flavoprotein (Etfa), mRNA expression, SAM",[2]; probe set Rc_AA894174_at,0.7
same,"Arachidonate 12-lipoxygenase expression, GS (change cut-off)",[2]; probe set S69383_at,≦1.5
same,"Arachidonate 12-lipoxygenase expression, SAM",[2]; probe set S69383_at,0.5
same,"Prolactin expression, GS (change cut-off)",[2]; probe set V01244_at,≧1.5
same,"Prolactin expression, SAM",[2]; probe set V01244_at,12.8
same,"Prolactin expression, GS (change cut-off)",[2]; probe set V01250cds_s_at,≧1.5
same,"Prolactin expression, SAM",[2]; probe set V01250cds_s_at,3
same,"Interleukin 5 (colony-stimulating factor, eosinophil) expression, GS (change cut-off)",[2]; probe set X54419cds_at,≧1.5
same,"Interleukin 5 (colony-stimulating factor, eosinophil) expression, SAM",[2]; probe set X54419cds_at,1.3
same,"Cytosolic epoxide hydrolase expression, GS (change cut-off)",[2]; probe set X60328_at,≧1.5
same,"Cytosolic epoxide hydrolase expression, SAM",[2]; probe set X60328_at,1.7
same,"Similar to M. musculus pre 45S pre rRNA gene expression, GS (change cut-off)",[2]; probe set rc_AA859966_i_at,≧1.5
same,"Similar to M. musculus pre 45S pre rRNA gene expression, SAM",[2]; probe set rc_AA859966_i_at,4.1
same,"Cytochrome P450, subfamily IIC6 expression, GS (change cut-off)",[2]; probe set rc_AA945571_sat,≧1.5
same,"Cytochrome P450, subfamily IIC6 expression, SAM",[2]; probe set rc_AA945571_sat,1.7
B1,capsaicin-responsiveness (eye wiping),"[1]; OVX female rats, PRL pretreatment",no change in capsaicin-responsiveness was observed
same,capsaicin-mediated nocifensive response,"[1]; age-matched male rats, PRL pretreatment",influences nociceptor sensitization in male rats
same,capsaicin-mediated nocifensive behavior (eye wiping),"[1]; proestrous rats, PRL 1 μg/μl 40 μl on cornea, then 0.01% capsaicin",significantly increases capsaicin-mediated nocifensive behavior
